This data set in a line: Solubility of retigabine in aqueous solution at varying pH. It counts as physicochemical. From the text:
Solubility was low in pH ranges of between pH 4.0 to pH 12.0.

Converted amounts (≈) assume the structure as drawn. Read-outs that look alike come from different tables or passages of the source.

For `CCOC(=O)Nc1ccc(NCc2ccc(F)cc2)cc1N` [retigabine, N-(2-amino-4-(fluorobenzylamino)-phenyl)carbamic acid ethyl ester], the “solubility as a function of pH” value (above pH 3 (FIG. 5)) is “drops off precipitously”. For the same compound, the solubility entry reads like this: (pH 3.0, aqueous conditions at 37° C.) “nearly complete insolubility”; (pH 4.0 to pH 12.0, aqueous solution at 37° C.) “low”; (simulated gastric fluid, pH 1.5, aqueous solution at 37° C., maximum solubility, read-out: solubility) roughly 16 mg/mL (≈ 52.7 mM); (simulated gastric fluid, pH 2.0, aqueous solution at 37° C., read-out: solubility) less than 4 mg/mL.

The record behind these values is patent US20100323016A1, “MODIFIED RELEASE FORMULATION AND METHODS OF USE” (priority 2008, published 2010).
